Reference: patent US20090155875A1, “Methods to Enhance Carbon Monoxide Dehydrogenase Activity and Uses Thereof” (priority 2005, published 2009)

Legend:
CODH = CODH activity by reduction of methyl viologen coupled to CO oxidation (absorption at 578 nm); assay type: biochemical, R. rubrum
Procedure: CODH activity was determined by the reduction of methyl viologen coupled to CO oxidation and the concomitant absorption at 578 nm by UV spectrophotometry. CODH activity was measured in an anaerobic reaction mixture containing 50 mM Tris-HCl, 2 mM methyl viologen and 2 mM dithiothreitol at pH 8.7 (Maness, P. C. and Weaver, P. F. (2002) Int. J. Hydrogen Energy 27:1407-11). The cell free, CODH-enriched fraction was prepared as described (Maness, P. C. and Weaver, P. F. (2001) Appl. Microbiol. Biotechnol. 57:751-6). The supernatant was used as the source of CODH enzyme.

Hydrogenase = Hydrogenase activity in whole cells by H2 evolution (gas chromatography); assay type: cell-based, R. rubrum
Procedure: Hydrogenase activity was determined using whole cells by measuring H2 evolution in an anaerobic reaction mixture containing 2 mM methyl viologen, 0.1% (w/v) Triton X-100 and 50 mM potassium phosphate buffer at pH 7.0. The reaction was initiated by adding 5 mM sodium dithionite. The reaction was incubated 15 minutes at 30° C. in a shaking water bath. The reaction was terminated by addition of 0.1 ml 10% (w/v) tricholoroacetic acid. Hydrogen in the gas phase was determined by gas chromatography as described in Maness, P. C. and Weaver, P. F. (2001) Appl. Microbiol. Biotechnol. 57:751-6.

CODH, sequence (P31896 2-639): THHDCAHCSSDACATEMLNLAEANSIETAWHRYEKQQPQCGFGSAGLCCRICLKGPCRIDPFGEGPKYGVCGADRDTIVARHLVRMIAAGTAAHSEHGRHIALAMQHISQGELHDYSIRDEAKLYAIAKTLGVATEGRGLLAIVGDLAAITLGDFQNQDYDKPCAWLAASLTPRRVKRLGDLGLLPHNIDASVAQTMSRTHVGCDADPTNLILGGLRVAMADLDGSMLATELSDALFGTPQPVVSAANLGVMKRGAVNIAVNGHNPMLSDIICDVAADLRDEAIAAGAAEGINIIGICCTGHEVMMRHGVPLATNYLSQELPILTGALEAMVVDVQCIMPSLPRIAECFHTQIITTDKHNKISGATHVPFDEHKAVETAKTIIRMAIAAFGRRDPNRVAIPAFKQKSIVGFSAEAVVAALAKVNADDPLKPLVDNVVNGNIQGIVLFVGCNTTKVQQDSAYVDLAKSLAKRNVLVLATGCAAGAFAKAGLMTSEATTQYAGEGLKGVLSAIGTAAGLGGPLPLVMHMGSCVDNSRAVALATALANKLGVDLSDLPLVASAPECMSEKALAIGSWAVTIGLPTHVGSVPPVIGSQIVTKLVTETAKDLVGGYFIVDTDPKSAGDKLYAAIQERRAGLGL

Q: How did the CODH activity (CODH; addition of hemoglobin (soluble, final 1.5 μM heme), untreated 17.76±2.85, p<9×10^−6) turn out when “hemoglobin: human α- and β-globin chains encoded in pHE2 plasmid; purified from E. coli and added, or expressed in the cells” was run?
A: 32.41±4.03 μmol methyl viologen reduction/min/ml

Q: And the CODH activity (CODH; expression of hemoglobin in the cells (pHE2 plasmid, IPTG induced), p<0.005)?
A: 29.60±7.30 μMol methyl viologen reduction/min/ml

Q: What about the hydrogenase activity (Hydrogenase; expression of hemoglobin in the cells, p<0.02) of the same substance?
A: 250.4±89.1 nMol H2/min/mg cell dry weight

Q: What about the hydrogenase activity (Hydrogenase; first statement, printed as 'hemoglobin expression', untreated 137.6±15.0, p<2×10^−6) of the same substance?
A: 266.9±27.0 nMol H2/min/mg cell dry weight
